The text below walks through data of patent publication US10543216B2, “Modus of administration of iron, and new formulations adapted for the said goal” (BIOFER S.P.A., priority 2013, dated 2020).

The test system of this data set is Pig esophageal epithelium. The experiment in a line: in vitro permeation in the Franz cell (model of sublingual absorption). Conditions: Franz cell, pig esophageal epithelium, 37° C. The procedure:
Sublingual absorption of Fe++ compounds was evaluated by means of in vitro permeation experiments using the Franz cell exemplified in FIG. 1. Pig esophageal epithelium was used as membrane. This experimental model is recognized as valid and reliable in the assessment of sublingual absorption of drugs [I. Diaz Del Consuelo, G. P. Pizzolato, F. Falsom, R. H. Guy, and Y. Jacques.: Evaluation of pig esophageal mucosa as a permeability barrier model for buccosal tissue. J. Pharm. […] Arch. […] Membrane preparation occurred by following the method described here. The esophagi were taken from the animals within one hour after sacrifice. The mucosa was separated from the muscle tissue with a lancet. To separate the epithelium, the mucosa was immersed in distilled water at 60° C. for 2 minutes and then the epithelium was removed from the underlying tissue with the aid of a spatula. The tissues thus prepared were stored at −20° C. until the time of use, when they were thawed to room temperature before being mounted on the vertical diffusion cells of the Franz type, a schematic view of which is shown in FIG. 1. The esophageal epithelium was placed on a regenerated cellulose filter (pore diameter 0.45 μm) with the luminal side facing up, and mounted between the donor and receptor compartments of the Franz cells. […] The exposed surface was 0.6 cm^2. The receptor compartment was filled with approximately 4 ml of physiological solution (0.9% NaCl w/v) and kept under constant magnetic agitation for the entire duration of the experiment. The entire system was thermostat-controlled at 37° C. Sampling of the receptor compartment was performed by drawing 200 μl of receptor solution, which were replaced immediately with an equal volume of fresh physiological solution. The samples were taken at preset time intervals, specifically at 0, 1, 2, 3, 4, 5 and 6 hours.
4 g of powder were suspended in 10 ml of physiological solution and left under agitation for 15 minutes, then the solution was filtered with regenerated cellulose filters (pore diameter 0.45 μm).
6 g of powder were suspended in 10 ml of physiological solution. The suspension was left under magnetic agitation for 25 minutes and then filtered with regenerated cellulose filters (pore diameter 0.45 μm).
7 g of powder were suspended in 6 ml of physiological solution. The suspension was left under magnetic agitation for 1 hour; at the end it was filtered with regenerated cellulose filters (pore diameter 0.45 μm).
An excess of ascorbic acid (2 g) was added to the solution. The suspension was left under magnetic agitation for 30 minutes and after filtration through regenerated cellulose filters (pore diameter 0.45 μm) was used as it was.
4 g of powder were suspended in 10 ml of physiological solution. The suspension was left under magnetic agitation for 15 hours, at the end of which it was filtered with regenerated cellulose filters (pore diameter 0.45 μm).
An excess of powder was suspended in 10 ml of physiological solution. The suspension was left under magnetic agitation for 15 hours, at the end of which it was filtered with regenerated cellulose filters (pore diameter 0.45 μm).

With ferric citrate, the “permeation / absorption through the epithelium (in words)” value was “appreciable only at very low pH values”.
